Results published in patent US7972831B2, “Lipases from thermophilic anaerobes” (Novozymes A/S, priority 2004, dated 2011).

B1: lipase of SEQ ID NO: 2: polypeptide having lipase activity from Thermoanaerobacter thermohydrosulfuricus DSM 7021 and T. brockii subsp. brockii DSM 1457 (protein, listed as Thermoanaerobacter thermohydrosulfuricus)
chain: MQKAVEITYNGKTLRGMMHLPDDVKGKVPMVIMFHGFTGNKVESHFIFVKMSRALEKVGIGSVRFDFYGSGESDGDFSEMTFSSELEDARQILKFVKEQPTTDPERIGLLGLSMGGAIAGIVAREYKDEIKALVLWAPAFNMPELIMNESVKQYGAIMEQLGFVDIGGHKLSKDFVEDISKLNIFELSKGYDKKVLIVHGTNDEAVEYKVSDRILKEVYGDNATRVTIENADHTFKSLEWEKKAIEESVEFFKKELLKG
B2: lipase of SEQ ID NO: 4: polypeptide having lipase activity from Caldanaerobacter subterraneus subsp. tengcongensis DSM 15242 (protein, listed as Thermoanaerobacter tencongensis)
chain: VQKAVEFTYNRKTLRGMLHLPEGVSEKVPMVVMFHGFTGNKVESHFIFVKMSRALEKVGIGSVRFDFYGSGESDGDFSEMTFSGELEDARQILDFVKRQPTTDVERIGLLGLSMGGAIAGIIARERKEDVKALVLWAPAFNMPELIMGEGARQYGAIMESLGYVDIGGLKLDRAFVEDIAKFNIFELSRGYEGKVLIVHGTNDEAVEYRISDRILQEVYGDNAFRVTIEGADHTFKNLEWERKAIEESVKFFERELKG

Tests used:
lipase of SEQ ID NO: 2 = assay: Positional specificity towards monoglycerides; type: biochemical, Thermoanaerobacter thermohydrosulfuricus
lipase = assay: Effect of detergent ingredients on lipase activity; type: biochemical; details: 1.5 hours at 30° C., up to 10% by weight of compound
Protocol: The activity of the lipase was tested after incubation for 1.5 hours at 30° C. with up to 10% by weight of various compounds.

[1] = Effect of pH on lipase activity; type: biochemical
[2] = Specific activity of purified lipase; type: biochemical, Thermoanaerobacter thermohydrosulfuricus; details: after three-step purification
Protocol: The lipase solution obtained after hydrophobic interaction chromatography was loaded on a hydroxilapatite column used as a second purification step. The lipase was eluted at the approximate mid-point of the sodium phosphate buffer gradient (220 to 250 mM range). The active fractions were further subjected to gel filtration column. […] The enzyme activity was present in the second major peak. The lipase was purified approximately 133.5-fold over the crude extract with a 10.2% yield. The specific activity of the purified lipase was 12.3 U/mg.

Molecule	effect on activity after incubation (lipase)	activity at pH 6.5-9.0 [1] [%]	also measured
monopalmitoyl glycerols	–	–	hydrolysis of 1-positional ester bond lower in comparison with 2-positional ester bond (lipase of SEQ ID NO: 2): less than 2 fold
Triton X-100	decreased the activity	–	–
CCCCCCCCCCCCOS(=O)(=O)[O-].[Na+] [SDS]	full enzyme inhibition	–	–
B1	–	> 80	specific activity of the purified lipase [2]: 12.3 U/mg
B2	–	> 60	–
